Test results as given in the NIST ThermoML archive (doi:10.1016/j.jct.2018.09.023).
± gives the expanded uncertainty stated by the source.

How the values were obtained:
[1] = activity coefficient (dimensionless); of the first substance listed, at infinite dilution; xn = mol fraction of the nth substance listed; settings: 101.33 kPa, Liquid, Chromatography, x1 = 0
[2] = 101.3 kPa, Liquid, Vibrating tube method

SMILES	activity coefficient ([1]; 323.15 K)	activity coefficient ([1]; 333.15 K)	activity coefficient ([1]; 343.15 K)	activity coefficient ([1]; 353.15 K)	activity coefficient ([1]; 363.15 K)	mass density ([2]; 323.15 K) [kg/m3]	mass density ([2]; 333.15 K) [kg/m3]	mass density ([2]; 343.15 K) [kg/m3]	mass density ([2]; 353.15 K) [kg/m3]	mass density ([2]; 363.15 K) [kg/m3]
Cc1ccccc1C [1,2-dimethylbenzene] + CCC[n+]1ccn(C)c1.[Br-]	4.19 ± 0.44	4.3 ± 0.45	4.49 ± 0.47	4.71 ± 0.49	4.97 ± 0.52					
Cc1cccc(C)c1 [1,3-dimethylbenzene] + CCC[n+]1ccn(C)c1.[Br-]	5.91 ± 0.62	6.04 ± 0.63	6.18 ± 0.65	6.33 ± 0.67	6.47 ± 0.68					
Cc1ccc(C)cc1 [1,4-dimethylbenzene] + CCC[n+]1ccn(C)c1.[Br-]	5.65 ± 0.59	5.8 ± 0.61	5.95 ± 0.63	6.11 ± 0.64	6.3 ± 0.66					
C1COCCO1 [1,4-dioxane] + CCC[n+]1ccn(C)c1.[Br-]	1.01 ± 0.1	1.05 ± 0.11	1.11 ± 0.11	1.17 ± 0.12	1.23 ± 0.13					
CCC[n+]1ccn(C)c1.[Br-] [1-methyl-3-propylimidazolium bromide]						1317.74 ± 2.5	1310.86 ± 2.5	1304.04 ± 2.4	1297.27 ± 2.4	1290.33 ± 2.4
CC(C)CC(C)(C)C [2,2,4-trimethylpentane] + CCC[n+]1ccn(C)c1.[Br-]	115 ± 12	111 ± 12	108 ± 11	104 ± 11	101 ± 11					
CC(C)CO [2-methyl-1-propanol] + CCC[n+]1ccn(C)c1.[Br-]	0.426 ± 0.049	0.406 ± 0.047	0.39 ± 0.046	0.378 ± 0.045	0.368 ± 0.044					
CC(C)CCO [3-methylbutan-1-ol] + CCC[n+]1ccn(C)c1.[Br-]	0.62 ± 0.066	0.587 ± 0.063	0.564 ± 0.061	0.548 ± 0.059	0.531 ± 0.058					
CC(C)=O [acetone] + CCC[n+]1ccn(C)c1.[Br-]	1.06 ± 0.11	1.14 ± 0.12	1.21 ± 0.12	1.29 ± 0.13	1.37 ± 0.14					
CC#N [acetonitrile] + CCC[n+]1ccn(C)c1.[Br-]	0.37 ± 0.04	0.39 ± 0.05	0.41 ± 0.05	0.44 ± 0.05	0.48 ± 0.05					
c1ccccc1 [benzene] + CCC[n+]1ccn(C)c1.[Br-]	1.7 ± 0.18	1.79 ± 0.19	1.89 ± 0.2	2 ± 0.21	2.11 ± 0.22					
CCCCO [butan-1-ol] + CCC[n+]1ccn(C)c1.[Br-]	0.438 ± 0.05	0.417 ± 0.048	0.402 ± 0.047	0.388 ± 0.046	0.379 ± 0.045					
CCC(C)O (stereo not given) [butan-2-ol] + CCC[n+]1ccn(C)c1.[Br-]	0.52 ± 0.057	0.5 ± 0.055	0.485 ± 0.054	0.471 ± 0.053	0.462 ± 0.052					
C1CCCCC1 [cyclohexane] + CCC[n+]1ccn(C)c1.[Br-]	66.2 ± 7	64.5 ± 6.8	62.9 ± 6.6	61.6 ± 6.5	60.4 ± 6.4					
C1=CCCCC1 [cyclohexene] + CCC[n+]1ccn(C)c1.[Br-]	21.7 ± 2.3	20.6 ± 2.2	19.7 ± 2.1	18.8 ± 2	18.1 ± 1.9					
CCCCCCCCCC [decane] + CCC[n+]1ccn(C)c1.[Br-]	130 ± 14	124 ± 13	118 ± 12	112 ± 12	108 ± 11					
ClCCl [dichloromethane] + CCC[n+]1ccn(C)c1.[Br-]	0.27 ± 0.04	0.29 ± 0.04	0.31 ± 0.04	0.34 ± 0.04	0.38 ± 0.05					
